In this assay the target is T1, human Werner helicase (WRN-BV08, Uniprot Q14191, amino acids 517-1235 with L1074F point mutation) (Homo sapiens, UniProt Q14191, L1074F).
T1 construct: Uniprot Q14191, amino acids 517-1235 with L1074F point mutation; TEV-cleavable 8×His (C, cleaved yes); made in house; host or cells: Sf9 insect cells (baculovirus)
T1 sequence (Q14191 with tags, fused parts or gaps L1074F limits assumed): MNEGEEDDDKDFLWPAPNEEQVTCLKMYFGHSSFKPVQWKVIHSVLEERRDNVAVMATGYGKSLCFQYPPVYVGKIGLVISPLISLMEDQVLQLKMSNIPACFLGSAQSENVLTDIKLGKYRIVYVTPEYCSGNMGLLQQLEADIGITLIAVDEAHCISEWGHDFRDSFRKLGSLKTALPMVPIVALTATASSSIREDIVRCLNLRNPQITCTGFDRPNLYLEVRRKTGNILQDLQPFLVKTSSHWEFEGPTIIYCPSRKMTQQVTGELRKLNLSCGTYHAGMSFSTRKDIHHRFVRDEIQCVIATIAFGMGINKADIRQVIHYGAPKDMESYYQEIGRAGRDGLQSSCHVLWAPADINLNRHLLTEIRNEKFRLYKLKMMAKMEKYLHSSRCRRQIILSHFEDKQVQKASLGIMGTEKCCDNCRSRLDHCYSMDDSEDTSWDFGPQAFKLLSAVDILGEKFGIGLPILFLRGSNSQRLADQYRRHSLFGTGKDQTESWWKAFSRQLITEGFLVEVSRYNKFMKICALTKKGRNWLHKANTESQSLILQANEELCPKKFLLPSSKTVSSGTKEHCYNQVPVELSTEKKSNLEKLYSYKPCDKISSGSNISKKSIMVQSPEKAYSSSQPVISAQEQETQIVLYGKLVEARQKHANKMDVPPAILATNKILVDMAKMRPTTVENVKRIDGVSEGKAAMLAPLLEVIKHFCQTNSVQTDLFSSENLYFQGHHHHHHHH
Briefly: WRN (BV08) ADP-Glo Assay. The following applies: 0.15 nM WRN, 5 μM ATP, 0.1 nM DNA duplex, 15 min preincubation, 60 min at 25° C., pH 7.5, 1% DMSO; read-out: ADP-Glo_hWRN_IC50. The format is biochemical. The procedure, abridged: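 Helicase ATPase activity is measured at 25 °C over 60 min using 0.15 nM enzyme, 5 μM ATP and 0.1 nM DNA duplex, final DMSO 1%. ADP production is detected by luminescence, with IC50 derived by curve fitting.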
(In ADP-Glo the light output rises with the ADP produced.)
For the compound `O=C(Cc1ccc(-n2cccc2)cc1)N(Cc1ccccc1N1CCC(O)C1)C1C=CS(=O)(=O)C1` (stereo not shown) [I-372, N-(1,1-dioxo-2,3-dihydro-1lambda6-thiophen-3-yl)-N-{[2-(3-hydroxypyrrolidin-1-yl)phenyl]methyl}-2-[4-(1H-pyrrol-1-yl)phenyl]acetamide], the IC50 was above 50 µM.

For `O=C(Cc1ccc(-n2cccc2)cc1)N(Cc1ccccc1)C1C=C(CO)S(=O)(=O)C1` (stereo not shown) [I-373, N-benzyl-N-[5-(hydroxymethyl)-1,1-dioxo-2,3-dihydro-1lambda6-thiophen-3-yl]-2-[4-(1H-pyrrol-1-yl)phenyl]acetamide], the IC50 was above 50 µM.

Turning to `COCc1cc(-c2ccc(F)cc2)ccc1CC(=O)N(Cc1ccncc1)C1C=CS(=O)(=O)C1` (stereo not shown) [I-376, N-(1,1-dioxo-2,3-dihydro-1lambda6-thiophen-3-yl)-2-[4′-fluoro-3-(methoxymethyl)-[1,1′-biphenyl]-4-yl]-N-[(pyridin-4-yl)methyl]acetamide], the IC50 was above 50 µM.

For `CC(=O)N(C)C(C(=O)N(Cc1ccncc1)C1C=CS(=O)(=O)C1)c1ccc(-n2cccc2)cc1` (stereo not shown) [I-377, N-(1,1-dioxo-2,3-dihydro-1lambda6-thiophen-3-yl)-2-(N-methylacetamido)-N-[(pyridin-4-yl)methyl]-2-[4-(1H-pyrrol-1-yl)phenyl]acetamide], the IC50 was above 50 µM.

Turning to `COc1cc(CN(C(=O)Cc2cnn(-c3ccc(Cl)cc3)c2)C2C=CS(=O)(=O)C2)ccn1` (stereo not shown) [I-379, 2-[1-(4-chlorophenyl)-1H-pyrazol-4-yl]-N-(1,1-dioxo-2,3-dihydro-1lambda6-thiophen-3-yl)-N-[(2-methoxypyridin-4-yl)methyl]acetamide], the IC50 is above 50 µM.

`COc1cc(CN(C(=O)Cc2ccn(-c3ccc(Cl)cc3)n2)C2C=CS(=O)(=O)C2)ccn1` (stereo not shown) [I-380, 2-[1-(4-chlorophenyl)-1H-pyrazol-3-yl]-N-(1,1-dioxo-2,3-dihydro-1lambda6-thiophen-3-yl)-N-[(2-methoxypyridin-4-yl)methyl]acetamide]: the IC50 is above 50 µM.

Regarding `COc1cc(CN(C(=O)Cc2ccc(-n3ccccc3=O)cc2F)C2C=CS(=O)(=O)C2)ccn1` (stereo not shown) [I-381, N-(1,1-dioxo-2,3-dihydro-1lambda6-thiophen-3-yl)-2-[2-fluoro-4-(2-oxo-1,2-dihydropyridin-1-yl)phenyl]-N-[(2-methoxypyridin-4-yl)methyl]acetamide], the IC50 was above 50 µM.

Turning to `O=C(Cc1ccc(-n2cccc2CCO)cc1)N(Cc1ccccc1)C1C=CS(=O)(=O)C1` (stereo not shown) [I-383, N-benzyl-N-(1,1-dioxo-2,3-dihydro-1lambda6-thiophen-3-yl)-2-{4-[2-(2-hydroxyethyl)-1H-pyrrol-1-yl]phenyl}acetamide], the IC50 was above 50 µM.

Regarding `COCCc1cccn1-c1ccc(CC(=O)N(Cc2ccccc2)C2C=CS(=O)(=O)C2)cc1` (stereo not shown) [I-384, N-benzyl-N-(1,1-dioxo-2,3-dihydro-1lambda6-thiophen-3-yl)-2-{4-[2-(2-methoxyethyl)-1H-pyrrol-1-yl]phenyl}acetamide], the IC50 was above 50 µM.

For the compound `COc1cc(CN(C(=O)C2CN(C)c3cc(-c4ccc(F)cc4)ccc32)C2C=CS(=O)(=O)C2)ccn1` (stereo not shown) [I-385, N-(1,1-dioxo-2,3-dihydro-1lambda6-thiophen-3-yl)-6-(4-fluorophenyl)-N-[(2-methoxypyridin-4-yl)methyl]-1-methyl-2,3-dihydro-1H-indole-3-carboxamide], the IC50 is above 50 µM.

With `N#CCCN(C(=O)Cc1ccc(-c2ccc(F)cc2)cc1)C1C=CS(=O)(=O)C1` (stereo not shown) [I-386, N-(2-cyanoethyl)-N-(1,1-dioxo-2,3-dihydro-1lambda6-thiophen-3-yl)-2-{4′-fluoro-[1,1′-biphenyl]-4-yl}acetamide], the IC50 is above 50 µM.

As to `CN(C)S(=O)(=O)c1ccc(CC(=O)N(Cc2ccncc2)C2C=CS(=O)(=O)C2)cc1` (stereo not shown) [I-388, 2-[4-(dimethylsulfamoyl)phenyl]-N-(1,1-dioxo-2,3-dihydro-1lambda6-thiophen-3-yl)-N-[(pyridin-4-yl)methyl]acetamide], the IC50 was above 50 µM.

With `O=C(Cc1ccc(C(F)(F)F)cn1)N(Cc1ccncc1)C1C=CS(=O)(=O)C1` (stereo not shown) [I-389, N-(1,1-dioxo-2,3-dihydro-1lambda6-thiophen-3-yl)-N-[(pyridin-4-yl)methyl]-2-[5-(trifluoromethyl)pyridin-2-yl]acetamide], the IC50 is above 50 µM.

With `O=C(Cc1ccn(-c2ccccc2)n1)N(Cc1ccncc1)C1C=CS(=O)(=O)C1` (stereo not shown) [I-390, N-(1,1-dioxo-2,3-dihydro-1lambda6-thiophen-3-yl)-2-(1-phenyl-1H-pyrazol-3-yl)-N-[(pyridin-4-yl)methyl]acetamide], the IC50 is above 50 µM.

Turning to `O=C(CCc1nc2cc(Cl)ccc2s1)N(Cc1ccncc1)C1C=CS(=O)(=O)C1` (stereo not shown) [I-391, 3-(5-chloro-1,3-benzothiazol-2-yl)-N-(1,1-dioxo-2,3-dihydro-1lambda6-thiophen-3-yl)-N-[(pyridin-4-yl)methyl]propanamide], the IC50 was above 50 µM.

For `O=C(Cc1cccc(CC(F)(F)F)c1)N(Cc1ccncc1)C1C=CS(=O)(=O)C1` (stereo not shown) [I-393, N-(1,1-dioxo-2,3-dihydro-1lambda6-thiophen-3-yl)-N-[(pyridin-4-yl)methyl]-2-[3-(2,2,2-trifluoroethyl)phenyl]acetamide], the IC50 is above 50 µM.

As to `O=C(Cc1ccn(-c2ccc(F)cc2)n1)N(Cc1ccncc1)C1C=CS(=O)(=O)C1` (stereo not shown) [I-394, N-(1,1-dioxo-2,3-dihydro-1lambda6-thiophen-3-yl)-2-[1-(4-fluorophenyl)-1H-pyrazol-3-yl]-N-[(pyridin-4-yl)methyl]acetamide], the IC50 is above 50 µM.

In the case of `O=C(CCc1cc2ccccc2[nH]1)N(Cc1ccncc1)C1C=CS(=O)(=O)C1` (stereo not shown) [I-396, N-(1,1-dioxo-2,3-dihydro-1lambda6-thiophen-3-yl)-3-(1H-indol-2-yl)-N-[(pyridin-4-yl)methyl]propanamide], the IC50 was above 50 µM.

Turning to `O=C(N[C@H](Cc1c[nH]c2ccccc12)C(=O)N(Cc1ccncc1)C1C=CS(=O)(=O)C1)C1CC1` (stereo partly drawn) [I-397, (2R)-2-(cyclopropylformamido)-N-(1,1-dioxo-2,3-dihydro-1lambda6-thiophen-3-yl)-3-(1H-indol-3-yl)-N-[(pyridin-4-yl)methyl]propanamide], the IC50 was above 50 µM.

Take `COc1cc(CN(C(=O)C2Cc3cc(-c4ccc(F)cc4)ccc3O2)C2C=CS(=O)(=O)C2)ccn1` (stereo not shown) [I-399, N-(1,1-dioxo-2,3-dihydro-1lambda6-thiophen-3-yl)-5-(4-fluorophenyl)-N-[(2-methoxypyridin-4-yl)methyl]-2,3-dihydro-1-benzofuran-2-carboxamide]: the IC50 was above 50 µM.

For the compound `O=C(Cc1ccc(-c2ccc(F)cc2)c(C(F)F)c1)N(Cc1ccncc1)C1C=CS(=O)(=O)C1` (stereo not shown) [I-401, 2-[2-(difluoromethyl)-4′-fluoro-[1,1′-biphenyl]-4-yl]-N-(1,1-dioxo-2,3-dihydro-1lambda6-thiophen-3-yl)-N-[(pyridin-4-yl)methyl]acetamide], the IC50 was above 50 µM.

Consider `O=C(Cc1ccc(-n2cccc2)cc1)N(Cc1nc(C2CC2)cs1)[C@H]1C=CS(=O)(=O)C1` [I-402, N-[(4-cyclopropyl-1,3-thiazol-2-yl)methyl]-N-[(3S)-1,1-dioxo-2,3-dihydro-1lambda6-thiophen-3-yl]-2-[4-(1H-pyrrol-1-yl)phenyl]acetamide], for which the IC50 was above 50 µM.

Source of the values: US20260297070A1, “CYCLIC [COMPOUND LEFT OUT] WRN INHIBITORS” (Nimbus Wadjet, Inc., priority 2023, published 2026).
